Assay results reported in patent US20220354811A1, “METHODS AND COMPOSITIONS FOR MODULATING MACROPHAGES POLARIZATION” (INSERM (INSTITUT NATIONAL DE LA SANTÉ ET DE LA RECHERCHE …, priority 2019, published 2022).

What was measured:
human primary monocytes = conditions: literature (Jacquel et al., Blood 2009, Sci Reports 2018); cited from earlier work
[1] = system: CSF-1-derived human macrophages; experiment: IL-4-induced M2 polarization of CSF-1-derived macrophages (flow cytometry CD200R/CD206, CD200R/CD163); type: cell-based
Procedure: FIG. 6. […] Human monocytes were differentiated during 7 days with 100 ng/mL CSF-1. […] The results are expressed as MFI and represent the mean of 3 independent experiments performed in duplicate. **P<0.01 according to a paired student t test (B) Macrophage polarization was evaluated by 3-color flow cytometric analysis. The percentage indicates cells that express both CD206/CD200R or CD163/CD200R. The results represent the mean±SD of 3 independent experiments performed in duplicate. **P<0.01, ***P<0.001 according to a paired student t test. Human monocytes were differentiated during 5 days with 100 ng/mL CSF-1 and then polarized into M2-macrophages (IL-4) for 2 days. […] The results are expressed as percentage of CD200R/CD206 or CD200R/CD163 double positive cells and represent the mean±SD of 3 independent experiments performed in duplicate.
To analyze the macrophagic differentiation of monocytes, the cells were washed with ice-cold phosphate buffered saline (PBS, Life Technologies, 14190169), incubated at 4° C. for 10 min in PBS/bovine serum albumin (BSA 0.5%, Dutscher, 871002) with anti-CD16, anti-CD71 and anti-CD163 or isotype controls (Miltenyi and BD Biosciences, catalog numbers were 130-113-396, 130-097-628 and 551374). Finally, the cells were washed and fixed in 2% paraformaldehyde (EMS, 15710). To perform macrophage polarization, purified monocytes were plated at 0.3×10^6 per mL in RPMI 1640 medium with glutamax-I supplemented with 10% (vol/vol) fetal bovine serum plus CSF-1 for 5+2 days to differentiate into M0 macrophages. 20 ng/mL IL-4 (Miltenyi, 130-094-117) was added after 5 days of differentiation for two days to polarize into M2-macrophages. […] Fluorescence was measured with a MACSQuant® Analyzer (Miltenyi, Paris, France). […] Fluorescence was measured with a MACSQuant® Analyzer (Miltenyi, Paris, France). […] Fluorescence, that indicate the internalization of particles, was measured with a MACSQuant® Analyzers (Miltenyi, France). Trypan blue solution was used to quench the fluorescence from particles that were not internalized. […]

Compound | effect on CSF-1-induced monocyte differentiation (human primary monocytes) | M1-like markers ([1]; 5 days CSF-1 then IL-4 2 days) | M2-like polarization of M0 macrophages induced by IL4 ([1]; 5 days CSF-1 then IL-4 2 days) | generation of CD200R+/CD206+ and CD200R+/CD163+ double-positive cells ([1]; IL4-polarized macrophages, Emricasan added 16 h before IL-4)
CC(C)[C@H](NC(=O)c1ccc2ccccc2n1)C(=O)N[C@@H](CC(=O)O)C(=O)COc1c(F)cccc1F [Q-VD-OPh] | inhibits |  |  | 
C[C@H](NC(=O)C(=O)Nc1ccccc1C(C)(C)C)C(=O)N[C@@H](CC(=O)O)C(=O)COc1c(F)c(F)cc(F)c1F [Emricasan, (S)-3-((S)-2-(2-((2-(tert-Butyl)phenyl)amino)-2-oxoacetamido)propanamido)-4-oxo-5-(2,3,5,6-tetrafluorophenoxy)pentanoic acid] |  | induced M1-like markers | dampened | inhibited
